Measurements from patent US20250339443A1, “METHOD FOR TREATING OR PREVENTING CALCIUM RELEASE-ACTIVATED CALCIUM CHANNEL OR DISCOIDIN DOMAIN RECEPTOR 2 RELATED DISORDERS OR CONDITIONS” (LumiSTAR Biotechnology, Inc., priority 2023, published 2025).

How the values were obtained:
CRAC channel [1] = target: T1, CRAC channel (Rattus norvegicus, UniProt Q5M848); test: CRAC channel activity / SOCE in HSC-T6; format: cell-based; conditions: HSC-T6, 10 μM pretreatment 45 min
T1 construct: endogenous in cells; host or cells: HSC-T6
T1 sequence (Q5M848 whole entry): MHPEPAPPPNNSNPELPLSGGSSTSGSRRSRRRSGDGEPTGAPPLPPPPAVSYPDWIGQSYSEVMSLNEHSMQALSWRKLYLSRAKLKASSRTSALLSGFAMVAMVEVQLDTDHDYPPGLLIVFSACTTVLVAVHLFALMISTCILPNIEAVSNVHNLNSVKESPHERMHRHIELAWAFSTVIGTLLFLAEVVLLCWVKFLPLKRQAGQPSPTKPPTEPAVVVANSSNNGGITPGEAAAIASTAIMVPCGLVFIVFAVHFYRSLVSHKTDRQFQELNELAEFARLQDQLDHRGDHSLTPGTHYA
Procedure: (§1) Cells were co-treated with various compounds (10 μM) and TGF-β1 for 24 hours. Following this, cell lysates were harvested, and the protein expression was assessed by Western blot analysis. FIG. 3D depicts the examination of TGF-β1-induced fibronectin deposition and α-SMA expression in HCF treated with 10 μM of DMSO, BTP2, WRG-28, or Av through immunofluorescence staining. The images were captured using a confocal microscope, the Olympus FV-1000. FIG. 3E, FIG. 3F, and FIG. 3G illustrate the assessment of CRAC channel activity in HCF, MRC5, and rat HSC-T6. These cells were pretreated with 10 μM of BTP2, WRG-28, or Av for 45 min. The evaluation included measuring the second peak of each calcium wave and the rate of entry. Each bar within the figure represents the mean value derived from 77 to 91 cells for HCF, 31 to 49 cells for MRC5, and 43 to 94 cells for HSC-T6. In all the graphs, *, **, and *** denote p-values of <0.05, 0.01, and 0.001, respectively.
(§2) Cells cultured on a glass-bottom 96 well plate for 48 hours were treated with different compounds (10 μM) and Fura 2-AM (1 μM) simultaneously in a solution containing 145 mM NaCl, 2.8 mM KCl, 2 mM CaCl2, 2 mM MgCl2, 10 mM D-glucose, 10 mM HEPES, pH 7.4 for 40 minutes in the dark. […] All the images were analyzed by using IGOR Pro software. […]

CRAC channel [2] = target: T2, CRAC channel (Homo sapiens, UniProt Q96D31); test: CRAC channel activity / SOCE in MRC5; format: cell-based; set-up: endogenous in cells; conditions: MRC5, 10 μM pretreatment 45 min
T2 sequence (Q96D31 whole entry): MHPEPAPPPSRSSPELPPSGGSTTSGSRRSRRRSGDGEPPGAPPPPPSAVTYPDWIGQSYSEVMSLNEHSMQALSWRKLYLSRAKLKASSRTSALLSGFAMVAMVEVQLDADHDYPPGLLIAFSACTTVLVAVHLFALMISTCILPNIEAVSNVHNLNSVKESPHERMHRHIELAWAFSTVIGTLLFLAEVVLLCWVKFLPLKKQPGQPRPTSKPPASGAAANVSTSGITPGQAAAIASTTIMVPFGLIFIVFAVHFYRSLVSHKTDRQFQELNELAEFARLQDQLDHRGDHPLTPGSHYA
Procedure: as §1, §2

CRAC channel [3] = target: T2, CRAC channel; test: CRAC channel activity / SOCE in HCF; format: cell-based; set-up: endogenous in cells; conditions: 10 μM pretreatment 45 min
Procedure: as §1, §2

[4] = test system: obstruction-induced persistent progression of renal fibrosis; test: Kidney transcriptome (RNA sequencing, ingenuity pathway analysis) in RUUO mice; format: in vivo, mouse; conditions: treated after the obstruction was released (7/15*d)
From the text: FIG. 10A and FIG. 10B display how WRG-28 and Av treatments effectively reduce RUUO-induced overwhelming fibrosis and inflammation. In FIG. 10A, total ribonucleic acid (RNA) extracts from control mice (sham) and mice treated with DMSO, WRG-28, or Av after the obstruction was released (7/15*d) underwent ingenuity pathway analysis (IPA). Both FIG. 10A and FIG. 10B illustrate large-scale transcriptome analysis, further affirming the potent effects of WRG-28 and Av in preventing and protecting kidneys from progressive fibrosis.
Total RNA was extracted from kidneys by homogenizing the samples in TRIzol reagent (Invitrogen). Chloroform was added and the homogenate separates into three layers, the upper clear aqueous containing RNA was transferred into a new tube, and RNA was precipitated by adding isopropanol. The pellets were washed with 70% ethanol and then dissolved in RNase-free water. The RNA passes the quality control, including RNA integrity number (RIN) >7, OD260/OD280 ˜1.8, etc., were sent for sequencing. Transcriptomes were analyzed by ingenuity pathway analysis (IPA).
Total ribonucleic acid (RNA) was extracted from […]: control mice (sham) and mice that received treatments with DMSO, WRG-28, or Av after the obstruction was released (7/15*d). Transcriptomes were then analyzed by ingenuity pathway analysis (IPA). […]

In the case of CCNS(=O)(=O)c1ccc(COc2ccc3nc4ccc(=O)cc-4oc3c2)cc1 [WRG-28], the SOCE (CRAC channel [1]) is reported as “notably reduced”, the SOCE (CRAC channel [2]) is reported as “notably reduced” and the SOCE (CRAC channel [3]) is reported as “notably reduced”. The “inflammatory responses and fibrotic signaling pathways (transcriptome, IPA)” value [4] was “reduced”.
